Measurements reported in patent publication EP2729445B1, “CYCLIC AMINE DERIVATIVES AS EP4 RECEPTOR ANTAGONISTS” (Rottapharm Biotech S.r.l., priority 2011, dated 2013).

Key:
hEP4 receptors [1] = biological target: T1, hEP4 receptors (Homo sapiens, UniProt P35408); assay: [3H]-Prostaglandin E2 membrane binding assay; settings: read-out: Binding pKi (converted)
T1 construct: membrane fraction used
Experimental: (§1) The cDNA clone of human EP4 receptor (NM_000958.2) was obtained from InvitrogenTM: Ultimate™ ORF Clone Collection - Clone ID IOH46525. The coding sequence was subcloned in expression vector pcDNATM6.2/V5-DEST by Gateway technology (InvitrogenTM). Human embryonic kidney cells (HEK-293) were stably transfected with expression vector for human EP4 receptor in according to the method described in FuGENE®6 Transfection Reagent's manual (Roche Applied Science®).
(§2) The EP4 transfected cells were grown in Dulbecco's modified Eagle's medium containing 10% fetal bovine serum and 10 µg/ml Blasticidin S HCl (selection medium) at 37°C in a humidified atmosphere of 5% CO2 in air. For the membrane preparation, cells in flask were harvested by hypotonical/mechanical lysis with chilled (4°C) TE buffer (5mM TRIS, 5mM ethylenediamine tetra-acetic acid (EDTA), pH 7.4). Cells were detached and lysed with 10ml of hypotonic lysis buffer and by scraping. The cell lysate was vortexed for 30 sec and centrifuged at 40000x g at 4°C for 22min.
The membrane pellet was resuspended in the same buffer (5mM TRIS, 5mM ethylenediamine tetra-acetic acid (EDTA), pH 7.4), and protein concentration was determined by Bradford method (Bio-Bad® assay). This membrane preparation was stored at -80°C freezer until use for binding assay. ([^3H]-PGE2) membranes binding assays toward hEP4 receptors (human EP4/HEK293 transfectant, see above) and hEP2 receptors (human EP2/HEK293 transfectant, purchased from PerkinElmer Inc) were performed in 10 mM MES-KOH buffer pH6, containing 10 mM MgCl2 and 1 mM CaCl2 for EP4 binding assay or 50 mM Tris-Cl, BSA 0.5% for EP2 binding assay (according to supplier indication) . Ten microgram of protein from membrane fractions were incubated in a total volume of 0.1ml (EP4) or 0.2ml (EP2) with 1nM (EP4) or 3nM (EP2) [^3H]-PGE2 (PerkinElmer Inc, 171Ci/mmol). In both assays to determine the total binding or non specific binding, 1% DMSO or 1µM prostaglandin E2 (EP4) or 100 µM (EP2) were added to reaction mixtures, respectively. Incubation was conducted in a polypropylene 96 multiwell for 90 min (EP4) or 60 min (EP2) at room temperature prior to separation of the bound and free radioligand by vacuum manifold rapid filtration on glass fiber filters (Unifilter GFB96, PerkinElmer Inc) pre-soaked in 0.3% polyethyleneimine. Filters were washed with ice cold buffer pH 7.4 (50mM HEPES, NaCl 500mM, BSA 0.1% for EP4 binding assay or 50mM Tris-Cl for EP2 binding assays) and the residual [^3H]-PGE2 binding determined by solid scintillation counter (TopCount , PerkinElmer Inc).
The affinity (Ki) of each compound was calculated according to the Cheng-Prousoff equation: Ki = IC50/(1+([C]/Kd)). Results were expressed as pKi (- log10 Ki (M)

hEP4 receptors [2] = biological target: T1, hEP4 receptors; assay: cAMP assay (AlphaScreen) on human EP4 membrane of transfected cells, antagonism of PGE2; type: biochemical; settings: HEK293 cell membrane stimulated with PGE2 3nM; read-out: functional IC50
Experimental: as §1, §2
The assay is based on the competition between endogenous cAMP and exogenously added biotinylated cAMP. The capture of cAMP is achieved by using a specific antibody conjugated to Donor beads. Cell membranes prepared as described above, were resuspended in 1 ml stimulation buffer (HBSS 1X + BSA 0.1% + IBMX 0.5mM + HEPES 5mM + MgCl2 10mM + GTP 1 nM + GDP 10µM + ATP 100µM - pH 7.4). Cell membranes were dispensed into white 384-well microplates at final concentration of 1µg/well and used for the determination of cAMP with the alphascreen cAMP functional assay (EnVision - PerkinElmer). Cell membrane/anti-cAMP Acceptor beads mix (5 µl) and a mixture of analysed compounds (dissolved in 100% DMSO to a final maximal concentration of 0.01% DMSO)/PGE2 (5 µl) were incubated at room temperature (22-23°C) for 30 min in the dark. The Biotinylated-cAMP and donor beads (15 µl) were dispensed into each well to start the competition reaction. After 1 h incubation RT (22-23°C) in the dark the plate was read using EnVision platform to determine the cAMP level (excitation: 680nm; emission:520,620nm). In each experiment:
cAMP standard curve (concentration range from 1x10-6 to 1x10-11 M in log intervals) with a negative control (no cAMP)
a positive control: forskolin 10µM
Antagonism studies were performed stimulating HEK293 cell membrane with PGE2 3nM. The AlphaScreen signal is plotted as a function of log concentration of cAMP and functional IC50 is determined. IC50 value is calculated by linear regression.

[3] = Pharmacokinetics after intravenous and oral treatment, plasma LC-MS/MS; type: in vivo, male Han Wistar rats; settings: rat, 1 mg/kg; for AUC(0-inf): extrapolated to infinity
Experimental: The pharmacokinetics of compounds E7, E17 and E18, were studied in male Han Wistar rats. The rats were treated intravenously and orally (n=3 for each dose route) with compounds formulated as solutions. The rats were fitted with a jugular cannula for serial sampling. A full profile was acquired from each rat. Plasma extracts were quantitatively analyzed using a specific and sensitive LC-MS/MS bioanalytical method. Inter-individual variations between the three rats in each group were limited (CV for pharmacokinetic parameters was below 50%). […] A range of clearance values were obtained for the different structure, ranging from low to moderate values (from 43 to 250 ml/h). After oral administration, absorption was quite fast with a clear maximum concentration reached by the first sampling time-point of 15 minutes for all compounds.

T1 sequence (P35408 whole entry): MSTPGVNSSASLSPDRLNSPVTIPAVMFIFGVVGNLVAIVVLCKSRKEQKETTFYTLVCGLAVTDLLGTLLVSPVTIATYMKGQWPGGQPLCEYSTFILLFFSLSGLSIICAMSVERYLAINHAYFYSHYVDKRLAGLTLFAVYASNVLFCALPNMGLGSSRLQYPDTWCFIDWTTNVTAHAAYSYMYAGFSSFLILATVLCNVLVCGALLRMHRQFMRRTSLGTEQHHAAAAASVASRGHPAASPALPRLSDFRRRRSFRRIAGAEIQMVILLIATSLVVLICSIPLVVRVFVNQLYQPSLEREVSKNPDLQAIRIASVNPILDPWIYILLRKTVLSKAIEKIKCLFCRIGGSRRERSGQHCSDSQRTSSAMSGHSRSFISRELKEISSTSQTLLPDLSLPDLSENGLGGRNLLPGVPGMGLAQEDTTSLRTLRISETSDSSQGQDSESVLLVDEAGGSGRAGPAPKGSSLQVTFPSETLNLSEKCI

- Ki (hEP4 receptors [1]): 12.6 nM
- IC50 (hEP4 receptors [2]): 28 nM
- AUC(0-t) ([3]; male, Han Wistar, plasma, iv): 966 ng·h/mL
- AUC(0-inf) ([3]; male, Han Wistar, plasma, iv): 1040 ng·h/mL
- half-life ([3]; male, Han Wistar, plasma, iv, extrapolated, indicative only): 7.3 h
- clearance ([3]; male, Han Wistar, plasma, iv, extrapolated, indicative only, read-out: CLp* (converted)): 4.22 mL/min
- Vd ([3]; male, Han Wistar, plasma, iv, extrapolated, indicative only, read-out: Vss*): 1.79 L
- AUC(0-t) ([3]; male, Han Wistar, plasma, po): 823 ng·h/mL
- Cmax ([3]; male, Han Wistar, plasma, po): 318 ng/mL
- Tmax ([3]; male, Han Wistar, plasma, po): 0.5 h
- AUC(0-inf) ([3]; male, Han Wistar, plasma, po): 1080 ng·h/mL
- half-life ([3]; male, Han Wistar, plasma, po, extrapolated, indicative only): 14.1 h
- bioavailability ([3]; male, Han Wistar, plasma, po): 85%
- Tlast ([3]; po): 24 h
SMILES: O=C(O)c1ccc(C2(NC(=O)[C@H]3CC(F)(F)CCN3Cc3ccc(C(F)(F)F)cc3)CC2)cc1 [Example E17, (R)-4-(1-(4,4-difluoro-1-(4-(trifluoromethyl)benzyl)piperidine-2-carboxamido)cyclopropyl)benzoic acid]
